Test results reported in patent publication US20070116785A1, “Nitric oxide as an anti-viral agent, vaccine and vaccine adjuvant” (priority 2005, published 2007).
Entries after “also recorded” stand apart in the source; their conditions may differ.

Key:
influenza A virus = test: Plaque assay in MDCK cells with virus exposed to nitric oxide gas (Example 1); assay type: cell-based; settings: virus exposed to 160 ppm nitric oxide gas for 1, 2 and 3 hours; vs air control; FIG. 1
influenza A/H3N2 = test: Plaque assay in MDCK cells with gNO-exposed virus (Example 2); assay type: cell-based
[1] = test system: influenza A/Victoria/H3N2; test: Plaque assay in MDCK cells with gNO-exposed virus, several concentrations and dosing techniques (Example 2); assay type: cell-based
[2] = test system: Highly Pathogenic Avian Influenza (HPAI) H7N3; assay type: cell-based
Bovine Respiratory Virus = test: In vivo bovine feedlot study (Example 6); parameters: species or system calves
Experimental: A similar in vivo bovine study as in Example 5 was conducted with one hundred and fifty-eight (158) calves. The calves were shipped into a commercial feedlot, wherein some of the animals at the feedlot were infected with BRV. The […] calves were treated with either: (1) 4 minutes of approximately 160-260 ppm nitric oxide gas (30-60 breaths); or (2) conventional antibiotic, antiviral and immunization medications. 42 calves were treated with gNO, while 116 calves were treated with conventional antibiotics.

[3] = test system: Bovine Respiratory Disease (BRD)

For `[N]=O` [gNO, Nitric oxide], the “influenza A virus in MDCK cell cultures (plaques)” value (influenza A virus) was “significantly less influenza A virus as compared to the air control”, the “infectivity of influenza A/H3N2” value (influenza A/H3N2; 80 ppm gNO continuously for 4 hours, FIG. 4) was “not as effective as the 160 ppm concentration” and the “concentration of influenza A/H3N2 (viruses capable of infecting a cell)” value (influenza A/H3N2; 160 ppm gNO for 1, 2 and 3 hours, vs room air control, FIG. 2) was “significantly reduced the concentration of influenza A/H3N2”. For the same compound, the “concentration of influenza A/H3N2” value (influenza A/H3N2; single 30 minute exposure to 160 ppm gNO, plaque assay to 20 hours after exposure, FIG. 5) was “decreases concentration of influenza A/H3N2 over 20 hours”, the “infectivity of influenza A/Victoria/H3N2” value ([1]; 40 ppm gNO continuously over 4 hours, FIG. 10) was “no effect” and the “infectivity of influenza A/Victoria/H3N2” value ([1]; 80 ppm gNO continuously for 4 hours, FIG. 7, 10) was “not effective; also recorded: no effect”. The “infectivity of influenza A/Victoria/H3N2” value ([1]; 160 ppm gNO and above (160 ppm and 800 ppm), continuously over 4 hours, vs controls and lower concentrations, FIG. 11) was “effective in reducing the infectivity”, the “concentration of influenza A/Victoria/H3N2” value ([1]; 160 ppm gNO for 4 continuous hours, FIG. 8) was “effective in reducing the concentration of influenza A/Victoria/H3N2; also recorded: significant effect” and the “infectivity of influenza A/Victoria/H3N2” value ([1]; 800 ppm gNO continuously over 4 hours, FIG. 11) was “no real improved effect compared to 160 ppm”. The “infectivity of influenza A/Victoria/H3N2” value ([1]; intermittent 160 ppm gNO, 30 minutes once every hour for 4 hours, FIG. 12) was “more effective than the single 30 minute exposure; also recorded: effective as an anti-infective agent against influenza A/Victoria/H3N2”, the “concentration of influenza A/Victoria/H3N2” value ([1]; single 30 minute exposure to 160 ppm gNO, tracked over 4 hours, FIG. 9, 12) was “effective in reducing concentration of influenza A/Victoria/H3N2; also recorded: as effective as three (3) thirty (30) minute doses of gNO” and the “concentration of HPAI H7N3” value [2] was “about 330 PFU/mL”. The “infectivity of HPAI H7N3, continuous exposure compared with single treatment” value [2] was “comparatively better than the single treatment”, the “infectivity of HPAI H7N3” value ([2]; after 3 hours) was “under 50 PFU/mL” and the “calves exhibiting clinical signs of infection (Bovine Respiratory Virus)” value (Bovine Respiratory Virus; after 15 days, 4 minutes of approximately 160-260 ppm nitric oxide gas (30-60 breaths), 4/42) was 9.5%. The “effectiveness as antiviral agent reducing infectivity relative to conventional vaccines, antiviral agents and antibiotics” value (Bovine Respiratory Virus; feedlot calves, 15 days) was “almost twice as effective”, the “clinical scores (industry standard signs)” value ([3]; 160 ppm gNO, prophylactic vs early detection group, FIG. 17) was “more effective in achieving low clinical scores for the prophylactic group than for the early detection group” and the “IRT Temperature” value ([3]; 160 ppm gNO, prophylactic vs early detection group, FIG. 18) was “more effective in achieving low IRT temperatures for the prophylactic group than for the early detection group”. The “calves' temperatures and clinical scores” value ([3]; NO given at Early Detection (IRT) or at Clinical Detection) was “rapidly resolved”, the “infection after 6 months” value ([3]; all NO treated animals regardless of dosing/timing, induction herd: 13 out of 15 required antibiotic treatment) was “none of the NO treated animals demonstrated infection” and the prevention of infection ([3]; bovine, in vivo) was “effective in preventing infection”. For the same compound, the safety of delivery ([3]; bovine, in vivo) was “delivered safely without incident” and the “Mean Temperature (IRT)” value ([3]; prophylactic group, mean over 10 days, […], FIG. 16) was “roughly 36.1 °C”.
